Several values for one entry are separate records, joined by “and”; a condition that tells them apart may be missing. Equal values may be shown once.
System: adult subjects with major depressive disorder (MDD)
Assay: Phase 3 placebo-controlled study of Compound (1) 50 mg QD for 14 days in MDD (NCT04442490): efficacy scales
Type: in vivo, human
Settings: for Day 15 HAMD-17 improvement maintained on average: Day 15 HAMD-17 responders; for Day 15 MADRS improvement maintained on average: Day 15 MADRS responders
Excerpt: Title of Study: A Phase 3, Multicenter, Double-Blind, Randomized, Placebo-Controlled Study Evaluating the Efficacy of Compound (1) in the Treatment of Adult Subjects with Major Depressive Disorder
This was a randomized, double-blind, parallel-group, placebo-controlled study in subjects with MDD. The diagnosis of MDD was made according to Structured Clinical Interview for Diagnostic and DSM-5 Clinical Trial Version (SCID-5-CT) performed by a qualified healthcare professional.
Eligible subjects were stratified based on use of antidepressant treatment (current/stable or not treated/withdrawn ≥60 days) and randomized within each stratum to one of 2 treatment groups (Compound (1)—50 mg or matching placebo) in a 1:1 ratio. Subjects self-administered study drug once daily at approximately 8 PM with fat-containing food (e.g., within 1 hour of an evening meal which contains fat or with a fat-containing snack), on an outpatient basis, for 14 days. Subjects returned to the study center during the treatment and follow-up periods as outlined in Table 1.
Subjects self-administered Compound (1) (50 mg or 40 mg [for dose adjustments only as permitted]) or matching placebo orally once daily at approximately 8 PM with food for 14 days. The 50-mg and 40-mg doses was administered as 2 capsules per dose (50 mg, administered as one 30 mg-capsule and one 20-mg capsule, and 40-mg, administered as two 20-mg capsules). Placebo was also administered as 2 capsules to maintain the blind.
The estimand for the primary efficacy analysis was the mean change from baseline in HAM-D total score at Day 15. This was analyzed using a mixed effects model for repeated measures (MMRM); the model included treatment, baseline HAM-D total score, stratification factor, assessment time point, and time point-by-treatment as explanatory variables. All explanatory variables were treated as fixed effects. All post-baseline time points were included in the model. The main comparison was between Compound (1) and placebo at the 15-day time point. Model-based point estimates (e.g., least squares [LS] means, 95% confidence intervals, and p-values) were reported where applicable. An unstructured covariance structure was used to model the within-subject errors. If there was a convergence issue with the unstructured covariance model, Toeplitz, or Autoregressive (1) [AR(1)] covariance structure was used, following this sequence until convergence was achieved. […] When the covariance structure was not UN, the sandwich estimator for the variance covariance matrix was derived, using the EMPIRICAL option in the PROC MIXED statement in SAS.
Similar to those methods described above for the primary endpoint, an MMRM was used for the analysis of the change from baseline in other time points in HAM-D total score, MADRS total score, HAM-A total score, SF-36v2 score, PHQ-9 score, and selected individual items and/or subscale scores in HAM-D for change from baseline.
Generalized estimating equation (GEE) methods were used for the analysis of HAM-D Response (defined as ≥50% reduction from baseline in HAM-D total score) and HAM-D Remission (defined as HAM-D total score of ≤7.0). GEE models included terms for treatment, baseline score, stratification factor, assessment time point, and time point-by-treatment as explanatory variables. The comparison of interest was the difference between Compound (1) and matching placebo at the 15-day time point. Model-based point estimates (e.g., odds ratios), 95% confidence intervals, and p-values were reported.
A GEE method was also used for the analysis of CGI-I Response including terms for treatment, baseline CGI-S score, stratification factor, assessment time point, and time point-by-treatment as explanatory variables.
Compound (1) is an investigational two-week, once-daily oral drug for MDD that represents a potential new class of drug for the management of this common but serious mental health disorder. […]

With `C[C@@]1(O)CC[C@H]2[C@H](CC[C@@H]3[C@@H]2CC[C@]2(C)[C@@H](C(=O)Cn4cc(C#N)cn4)CC[C@@H]32)C1` [Compound (1), 1-(2-((3R,5R,8R,9R,10S,13S,14S,17S)-3-hydroxy-3,13-dimethylhexadecahydro-1H-cyclopenta[a]phenanthren-17-yl)-2-oxoethyl)-1H-pyrazole-4-carbonitrile] the “HAMD-17 Remission odds ratio (95% CI) vs placebo” value (ADT=No, Day 3) was 2.4 (0.91, 6.58), the “HAMD-17 Response odds ratio (95% CI) vs placebo” value (ADT=No, Day 3) was 2.3 (1.36, 3.79) and the “HAMD-17 Remission odds ratio (95% CI) vs placebo” value (ADT=No, Day 8) was 2.1 (1.14, 3.91). The “HAMD-17 Response odds ratio (95% CI) vs placebo” value (ADT=No, Day 8) was 1.7 (1.08, 2.58), the “HAMD-17 Remission odds ratio (95% CI) vs placebo” value (ADT=No, Day 12) was 1.5 (0.92, 2.44) and the “HAMD-17 Response odds ratio (95% CI) vs placebo” value (ADT=No, Day 12) was 1.5 (1.02, 2.35). For the same molecule, the “HAMD-17 Remission odds ratio (95% CI) vs placebo” value (ADT=No, Day 15) was 1.1 (0.70, 1.76), the “HAMD-17 Response” value (ADT=No, Day 15) was 55.5 n/N (%) and the “HAMD-17 Response odds ratio (95% CI) vs placebo” value (ADT=No, Day 15) was 1.4 (0.92, 2.12). For the same molecule, the “HAMD-17 Remission odds ratio (95% CI) vs placebo” value (ADT=No, Day 21) was 1.0 (0.62, 1.65), the “HAMD-17 Response odds ratio (95% CI) vs placebo” value (ADT=No, Day 21) was 1.1 (0.73, 1.70) and the “HAMD-17 Remission odds ratio (95% CI) vs placebo” value (ADT=No, Day 28) was 0.86 (0.52, 1.41). For the same molecule, the “HAMD-17 Response odds ratio (95% CI) vs placebo” value (ADT=No, Day 28) was 1.0 (0.65, 1.55), the “HAMD-17 Remission odds ratio (95% CI) vs placebo” value (ADT=No, Day 35) was 1.1 (0.66, 1.74) and the “HAMD-17 Response odds ratio (95% CI) vs placebo” value (ADT=No, Day 35) was 1.1 (0.72, 1.70). For the same molecule, the “HAMD-17 Remission odds ratio (95% CI) vs placebo” value (ADT=No, Day 42) was 1.0 (0.61, 1.55), the “HAMD-17 Response odds ratio (95% CI) vs placebo” value (ADT=No, Day 42) was 1.2 (0.81, 1.90) and the “HAMD-17 Response odds ratio (95% CI) vs placebo” value (ADT=Yes, Day 3) was 1.9 (0.87, 3.98). The “HAMD-17 Response odds ratio (95% CI) vs placebo” value (ADT=Yes, Day 8) was 1.9 (1.01, 3.73), the “HAMD-17 Response odds ratio (95% CI) vs placebo” value (ADT=Yes, Day 12) was 1.9 (0.98, 3.58) and the “HAMD-17 Response” value (ADT=Yes, Day 15) was 57.3 n/N (%). The “HAMD-17 Response odds ratio (95% CI) vs placebo” value (ADT=Yes, Day 15) was 1.4 (0.74, 2.71), the “HAMD-17 Response odds ratio (95% CI) vs placebo” value (ADT=Yes, Day 21) was 1.8 (0.95, 3.53) and the “HAMD-17 Response odds ratio (95% CI) vs placebo” value (ADT=Yes, Day 28) was 1.4 (0.72, 2.64). The “HAMD-17 Response odds ratio (95% CI) vs placebo” value (ADT=Yes, Day 35) was 1.4 (0.76, 2.75), the “HAMD-17 Response odds ratio (95% CI) vs placebo” value (ADT=Yes, Day 42) was 1.7 (0.91, 3.34) and the “CGI-Improvement Response odds ratio vs placebo” value (Day 3) was 1.8 (0.0032). For the same molecule, the “CGI-Severity LS mean TRT diff vs placebo” value (Day 3) was −0.4 (<0.0001), the “HAMD-17 total score LS mean (SE) CFB” value (Day 3) was −9.8 (0.38) and the “HAMD-17 total score LS mean TRT diff vs placebo” value (Day 3) was −3.0 (<0.0001) points. For the same molecule, the “CGI-Improvement Response odds ratio vs placebo” value (Day 8) was 1.9 (0.0005), the “CGI-Severity LS mean TRT diff vs placebo” value (Day 8) was −0.4 (0.0001) and the “HAM-A total score LS mean (SE) CFB” value (Day 8) was −8.7 (0.40). The “HAMD-17 total score LS mean (SE) CFB” value (Day 8) was −12.0 (0.45), the “MADRS total score LSM (SE) CFB” value (Day 8) was −14.6 (0.69) and the “CGI-Improvement Response odds ratio vs placebo” value (Day 12) was 1.6 (0.0101). The “CGI-Severity LS mean TRT diff vs placebo” value (Day 12) was −0.3 (0.0014), the “CGI-Improvement Response odds ratio vs placebo” value (Day 15) was 1.5 (0.0191) and the “HAM-A total score LS mean (SE) CFB” value (Day 15) was −10.4 (0.43). The “HAMD-17 Anxiety subscale LSM difference vs placebo” value (Day 15) was −0.9 points, the “HAMD-17 Bech-6 subscale LSM difference vs placebo” value (Day 15) was −3.2 points and the “HAMD-17 Core Depression subscale LSM difference vs placebo” value (Day 15) was −2.0 points. The “HAMD-17 Maier subscale LSM difference vs placebo” value (Day 15) was −3.0 points, the “HAMD-17 early insomnia item mean reduction from baseline” value (Day 15) was −1.0 and the “HAMD-17 late insomnia item mean reduction from baseline” value (Day 15) was −0.8. For the same molecule, the “HAMD-17 middle insomnia item mean reduction from baseline” value (Day 15) was −1.2, the “HAMD-17 total score LS mean (SE) CFB” value (Day 15) was −14.1 (0.51) and the “MADRS Response (≥50% reduction) rate” value (Day 15) was 51.6%. The “MADRS total score LS mean TRT diff vs placebo” value (Day 15) was −2.4 points and −2.4 (0.0238) points, the “SF-36v2 Bodily Pain (BP) CFB” value (Day 15) was 5.26 and the “SF-36v2 General Health (GH) CFB” value (Day 15) was 4.51. The “SF-36v2 Mental Health (MH) CFB” value (Day 15) was 14.45, the “SF-36v2 Physical-Functioning (PF) CFB” value (Day 15) was 3.41 and the “SF-36v2 Role-Emotional (RE) CFB” value (Day 15) was 14.19. For the same molecule, the “SF-36v2 Role-Physical (RP) CFB” value (Day 15) was 3.45, the “SF-36v2 Social-Functioning (SF) CFB” value (Day 15) was 12.89 and the “SF-36v2 Vitality (V) CFB” value (Day 15) was 13.12. For the same molecule, the “SF-36v2 least-squares mean vitality score increase versus placebo” value (Day 15) was 3.1, the “HAMD-17 total score LS mean TRT diff vs placebo” value (Day 15 (primary endpoint)) was −1.7 points and −1.7 (0.0141) points and the “HAMD-17 LSM treatment difference vs placebo, subgroup” value (“HAMD-17 LSM treatment difference” below) (Day 15, ADT use No (monotherapy)) was −1.98. The “HAMD-17 LSM treatment difference” value (Day 15, ADT use Yes (combination)) was −1.21, the “HAMD-17 LSM treatment difference” value (Day 15, age 18-24 years) was −1.67 and the “HAMD-17 LSM treatment difference” value (Day 15, age 25-50 years) was −1.96. For the same molecule, the “HAMD-17 LSM treatment difference” value (Day 15, age 51-64 years) was −1.18, the “HAMD-17 LSM treatment difference” value (Day 15, baseline BMI 18.5-24.9 kg/m^2) was −1.02 and the “HAMD-17 LSM treatment difference” value (Day 15, baseline BMI 25-29.9 kg/m^2) was −3.94. The “HAMD-17 LSM treatment difference” value (Day 15, baseline BMI ≥30 kg/m^2) was −1.04, the “HAMD-17 LSM treatment difference” value (Day 15, baseline HAMD-17TS <26) was −1.25 and the “HAMD-17 LSM treatment difference” value (Day 15, baseline HAMD-17TS ≥26) was −1.91. For the same molecule, the “HAMD-17 LSM treatment difference” value (Day 15, female) was −1.58, the “HAMD-17 LSM treatment difference” value (Day 15, male) was −1.81 and the “HAMD-17 LSM treatment difference” value (Day 15, race Black) was −2.20. The “HAMD-17 LSM treatment difference” value (Day 15, race Other) was −4.22, the “HAMD-17 LSM treatment difference” value (Day 15, race White) was −1.47 and the “Day 15 HAMD-17 improvement maintained on average” value (Day 28) was 81.7%. The “Day 15 HAMD-17 improvement maintained on average” value (Day 42) was 86.1%, the “Day 15 MADRS improvement maintained on average” value (Day 28) was 85.2% and the “Day 15 MADRS improvement maintained on average” value (Day 42) was 87.6%. For the same molecule, the “Patients retaining ≥65% of Day 15 HAMD-17 improvement” value (Day 21) was 81.0%, the “MADRS total score LS mean TRT diff vs placebo” value (Day 28) was −1.5 and the “MADRS total score LSM (SE) CFB” value (Day 28) was −16.4 (0.80). For the same molecule, the “HAMD-17 total score LS mean (SE) CFB” value (Day 42) was −13.5 (0.55), the “HAMD-17 total score LS mean TRT diff vs placebo” value (Day 42) was −0.9 and the “MADRS total score LS mean TRT diff vs placebo” value (Day 42) was −1.3. For the same molecule, the “MADRS total score LSM (SE) CFB” value (Day 42) was −17.5 (0.83), the “Patients retaining ≥65% of Day 15 HAMD-17 improvement” value (Day 42) was 75.4% and 74.9% and the “HAMD-17 Remission (HAMD-17≤7) rate” value (overall, Day 3) was 7.6%. The “HAMD-17 Remission odds ratio vs placebo” value (overall, Day 3) was 3.57, the “HAMD-17 Response (≥50% reduction) rate” value (overall, Day 3) was 29.3% and the “HAMD-17 Response odds ratio vs placebo” value (overall, Day 3) was 2.14. The “HAMD-17 Response (≥50% reduction) rate” value (overall, Day 15) was 56.0% and the “HAMD-17 Response odds ratio vs placebo” value (overall, Day 15) was 1.40.
